Experimental data as given in ChEMBL document CHEMBL1201862, “PubChem BioAssay data set” (2004).
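Cultured in 96-well plates, cells were exposed to test compound for 48 hours across five concentrations. GI50: concentration for 50% inhibition of growth.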 Calls of active or inactive are those of the source. No stated cut-off is given here; in the data, active = GI50 up to about 1.1 µM and inactive = higher.

Experiments:
Assay in all cases: DTP human tumour cell line panel, 48 h
SN12C = system: SN12C
PC-3 = system: PC-3
HCC 2998 = system: HCC 2998
TK-10 = system: TK-10
786-0 = system: 786-0
HCT-116 = system: HCT-116
EKVX = system: EKVX
OVCAR-5 = system: OVCAR-5
DU-145 = system: DU-145
NCI-H226 = system: NCI-H226
HCT-15 = system: HCT-15
SK-MEL-5 = system: SK-MEL-5
RXF 393 = system: RXF 393
SF-539 = system: SF-539
MCF7 = system: MCF7
T47D = system: T47D
RPMI-8226 = system: RPMI-8226

| SMILES | GI50 (SN12C) | GI50 (PC-3) | GI50 (HCC 2998) | GI50 (TK-10) | GI50 (786-0) | GI50 (HCT-116) | GI50 (EKVX) | GI50 (OVCAR-5) | GI50 (DU-145) | GI50 (NCI-H226) | GI50 (HCT-15) | GI50 (SK-MEL-5) | GI50 (RXF 393) | GI50 (SF-539) | GI50 (MCF7) | GI50 (T47D) | GI50 (RPMI-8226) |
| --- | --- | --- | --- | --- | --- | --- | --- | --- | --- | --- | --- | --- | --- | --- | --- | --- | --- |
| CCOc1ccc2nc(NC(=O)C(=O)C3C(=O)C(CC4C(=O)c5ccccc5C4=O)C(=O)CC3(C)C)sc2c1 (configuration not stated) | > 100 µM (inactive) | 65.8 µM (inactive) | > 100 µM (inactive) | > 100 µM (inactive) | > 100 µM (inactive) | 86.7 µM (inactive) | 32.9 µM (inactive) | > 100 µM (inactive) | > 100 µM (inactive) | > 100 µM (inactive) | > 100 µM | 96.4 µM (inactive) | > 100 µM (inactive) | > 100 µM (inactive) | > 100 µM (inactive) | – | – |
| CC(C)[Si](OC1=C(C(=O)N(C)c2ccccc2Cl)CCCCC1)(C(C)C)C(C)C | > 100 µM (inactive) | – | – | > 100 µM (inactive) | > 100 µM (inactive) | > 100 µM (inactive) | > 100 µM (inactive) | > 100 µM (inactive) | > 100 µM (inactive) | > 100 µM (inactive) | > 100 µM | > 100 µM (inactive) | > 100 µM (inactive) | > 100 µM (inactive) | – | > 100 µM (inactive) | > 100 µM (inactive) |
| Cc1ccc(S(=O)(=O)N2CCNCCN(S(=O)(=O)c3ccc(C)cc3)CCNCC2)cc1 | 29.6 µM (inactive) | – | 15.7 µM (inactive) | 18.3 µM (inactive) | 18.7 µM (inactive) | 15 µM (inactive) | 24 µM (inactive) | 43.4 µM (inactive) | 19.5 µM (inactive) | 19.3 µM (inactive) | 32.9 µM | 16.3 µM (inactive) | 2.65 µM (inactive) | 19.1 µM (inactive) | 27.3 µM (inactive) | 12.3 µM (inactive) | – |
| COc1ccc(-c2c(C(C)=O)c(-c3ccccc3)n(C3OC(CO)C(O)C(O)C3O)c(=S)c2C#N)cc1 (configuration not stated) | > 100 µM (inactive) | – | > 100 µM (inactive) | > 100 µM (inactive) | > 100 µM (inactive) | > 100 µM (inactive) | > 100 µM (inactive) | > 100 µM (inactive) | > 100 µM (inactive) | > 100 µM (inactive) | > 100 µM | > 100 µM (inactive) | > 100 µM (inactive) | > 100 µM (inactive) | > 100 µM (inactive) | > 100 µM (inactive) | – |
| COc1ccc2c3c([nH]c2c1[N+](=O)[O-])C(C)N(C(=O)/C=C/c1ccccc1)CC3 (configuration not stated) | 41.2 µM (inactive) | – | 21.5 µM (inactive) | 60.3 µM (inactive) | 12.7 µM (inactive) | – | 16.6 µM (inactive) | > 100 µM (inactive) | – | 10.9 µM (inactive) | 5.71 µM | – | 3.27 µM (inactive) | 10.8 µM (inactive) | – | – | 2.78 µM (inactive) |
| CC1=C[C@H](O)[C@@]2(C)[C@@H]([C@@H]1C)[C@H]1CC[C@@H]3[C@@]4(C)CC[C@H](O)C(C)(C)[C@@H]4CC[C@@]3(C)[C@]1(C)C[C@@H]2O | 15.2 µM (inactive) | 20.6 µM (inactive) | 18.8 µM (inactive) | 22.2 µM (inactive) | 14 µM (inactive) | 12.4 µM (inactive) | 12.4 µM (inactive) | 15.6 µM (inactive) | 16.4 µM (inactive) | 23.1 µM (inactive) | 19 µM | 16.5 µM (inactive) | 17.6 µM (inactive) | – | – | 14.3 µM (inactive) | – |
| CCOC(=O)NC(C(=O)OCC)C(F)(F)F (configuration not stated) | > 100 µM (inactive) | > 100 µM (inactive) | > 100 µM (inactive) | > 100 µM (inactive) | > 100 µM (inactive) | > 100 µM (inactive) | > 100 µM (inactive) | > 100 µM (inactive) | – | – | > 100 µM | > 100 µM (inactive) | – | 37.4 µM (inactive) | > 100 µM (inactive) | – | 57 µM (inactive) |
| c1ccc2c3nnc(c2c1)SCCSCCCSCCS3 | 53.8 µM (inactive) | 43.1 µM (inactive) | > 100 µM (inactive) | 48 µM (inactive) | 29.1 µM (inactive) | > 100 µM (inactive) | > 100 µM (inactive) | > 100 µM (inactive) | > 100 µM (inactive) | 35.6 µM (inactive) | > 100 µM | 54.1 µM (inactive) | 38.5 µM (inactive) | 12.6 µM (inactive) | > 100 µM (inactive) | > 100 µM (inactive) | – |
| O=c1cc(NNc2ccc(F)cc2)[nH]c(=O)[nH]1 | 18.2 µM (inactive) | 16.6 µM (inactive) | 23.4 µM (inactive) | 22 µM (inactive) | 12.5 µM (inactive) | 17.9 µM (inactive) | 18.3 µM (inactive) | 19.2 µM (inactive) | > 100 µM (inactive) | 24.6 µM (inactive) | 16.1 µM | 25.7 µM (inactive) | 15.5 µM (inactive) | 21.5 µM (inactive) | – | 27 µM (inactive) | 11 µM (inactive) |
| CN1CCC2(CC1)SSC1(CCN(C)CC1)S2 | > 100 µM (inactive) | > 100 µM (inactive) | – | – | > 100 µM (inactive) | > 100 µM (inactive) | – | > 100 µM (inactive) | – | – | > 100 µM | 60.5 µM (inactive) | – | > 100 µM (inactive) | – | – | > 100 µM (inactive) |
| O=c1[nH]nc(-c2ccccc2)c2[nH]c3c4ccccc4ccc3c12 | 3.87 µM (inactive) | 1.28 µM (inactive) | 0.948 µM (active) | 2.17 µM (inactive) | 2.1 µM (inactive) | 0.942 µM (active) | 3.44 µM (inactive) | – | – | 4.14 µM (inactive) | 0.643 µM | 0.587 µM (active) | 1.58 µM (inactive) | 0.964 µM (active) | 0.331 µM (active) | 5.4 µM (inactive) | 0.746 µM (active) |
| COC(=O)CCCC(=O)O | > 100 µM (inactive) | > 100 µM (inactive) | – | > 100 µM (inactive) | > 100 µM (inactive) | > 100 µM (inactive) | > 100 µM (inactive) | > 100 µM (inactive) | > 100 µM (inactive) | > 100 µM (inactive) | > 100 µM | > 100 µM (inactive) | > 100 µM (inactive) | – | > 100 µM (inactive) | > 100 µM (inactive) | – |
| CC1(C)/C(=N\Nc2ccc([N+](=O)[O-])cc2[N+](=O)[O-])C2CCC1C2 (configuration not stated) | > 100 µM (inactive) | > 100 µM (inactive) | – | > 100 µM (inactive) | 81.8 µM (inactive) | 5.65 µM (inactive) | > 100 µM (inactive) | > 100 µM (inactive) | > 100 µM (inactive) | > 100 µM (inactive) | > 100 µM | 4.2 µM (inactive) | – | – | > 100 µM (inactive) | > 100 µM (inactive) | > 100 µM (inactive) |
| COI1NC(=O)c2ccccc21 | > 100 µM (inactive) | > 100 µM (inactive) | – | > 100 µM (inactive) | > 100 µM (inactive) | > 100 µM (inactive) | > 100 µM (inactive) | > 100 µM (inactive) | > 100 µM (inactive) | > 100 µM (inactive) | > 100 µM | > 100 µM (inactive) | – | – | > 100 µM (inactive) | – | > 100 µM (inactive) |
| CCOc1c2c(cc3c1C(=O)c1c(OC)cccc1C3=O)C=C(OC)CC2 | > 25 µM (inactive) | 17.8 µM (inactive) | – | > 25 µM (inactive) | > 25 µM (inactive) | 17.4 µM (inactive) | > 25 µM (inactive) | > 25 µM (inactive) | > 25 µM (inactive) | > 25 µM (inactive) | 11.9 µM | 10.1 µM (inactive) | 12 µM (inactive) | > 25 µM (inactive) | 24.4 µM (inactive) | – | 7.24 µM (inactive) |
| CCc1n[nH]c(=O)n1/N=C/c1ccc(/C=N/n2c(CC)n[nH]c2=O)cc1 | > 100 µM (inactive) | > 100 µM (inactive) | – | > 100 µM (inactive) | > 100 µM (inactive) | > 100 µM (inactive) | > 100 µM (inactive) | > 100 µM (inactive) | > 100 µM (inactive) | > 100 µM (inactive) | > 100 µM | > 100 µM (inactive) | > 100 µM (inactive) | – | > 100 µM (inactive) | > 100 µM (inactive) | > 100 µM (inactive) |
| CCOC(=O)/C(C#N)=C/c1ccc(SCc2ccco2)c([N+](=O)[O-])c1 | > 100 µM (inactive) | > 100 µM (inactive) | > 100 µM (inactive) | – | > 100 µM (inactive) | > 100 µM (inactive) | > 100 µM (inactive) | > 100 µM (inactive) | > 100 µM (inactive) | > 100 µM (inactive) | – | > 100 µM (inactive) | > 100 µM (inactive) | 56.8 µM (inactive) | > 100 µM (inactive) | – | > 100 µM (inactive) |
| Nc1nc(SCCc2ccccc2)c2nc[nH]c2n1 | 39.4 µM (inactive) | 38.9 µM (inactive) | 25.9 µM (inactive) | 19.6 µM (inactive) | 78.2 µM (inactive) | 68.5 µM (inactive) | 25.2 µM (inactive) | 72.3 µM (inactive) | 36.2 µM (inactive) | 61.9 µM (inactive) | 37.2 µM | 45.1 µM (inactive) | 60.4 µM (inactive) | – | – | 40.9 µM (inactive) | – |
| O=[N+]([O-])c1ccccc1S(=O)(=O)c1cccc2c1NCCC2 | 86.7 µM (inactive) | 27.9 µM (inactive) | 56.8 µM (inactive) | > 100 µM (inactive) | > 100 µM (inactive) | 42.7 µM (inactive) | 99.3 µM (inactive) | > 100 µM (inactive) | 60.5 µM (inactive) | 91 µM (inactive) | 35 µM | 19.7 µM (inactive) | 37.8 µM (inactive) | > 100 µM (inactive) | 38.4 µM (inactive) | – | > 100 µM (inactive) |
| O=C(O)C(O)(c1ccc(-c2ccccc2)cc1)c1ccc(-c2ccccc2)cc1 | 22 µM (inactive) | 27 µM (inactive) | – | 37.6 µM (inactive) | 24.5 µM (inactive) | 23.5 µM (inactive) | 24.3 µM (inactive) | 26.7 µM (inactive) | 16.6 µM (inactive) | 26.9 µM (inactive) | 19.2 µM | 18.9 µM (inactive) | 22 µM (inactive) | – | – | 41.6 µM (inactive) | 56.6 µM (inactive) |
